Article PMC7349874, “High Content Screening Using New U2OS Reporter Cell Models Identifies Harmol Hydrochloride as a Selective and Competitive Antagonist of the Androgen Receptor” (Cells, 2020)
Structures can show the parent of a compound that is named as a salt.

How the values were obtained:
VCaP cells = assay: Spheroid growth (CellTiter-Glo), VCaP; conditions: 7 days, 1 nM R1881
[1] = molecular target: T1, glucocorticoid receptor (GR) (Homo sapiens, UniProt P04150); assay: Transactivation assay in HMLN GR cells; assay type: cell-based; conditions: 16 h, antagonism in the presence of 5 nM dexamethasone
T1 construct: expressed in transfected cells
T1 sequence (P04150 1-777): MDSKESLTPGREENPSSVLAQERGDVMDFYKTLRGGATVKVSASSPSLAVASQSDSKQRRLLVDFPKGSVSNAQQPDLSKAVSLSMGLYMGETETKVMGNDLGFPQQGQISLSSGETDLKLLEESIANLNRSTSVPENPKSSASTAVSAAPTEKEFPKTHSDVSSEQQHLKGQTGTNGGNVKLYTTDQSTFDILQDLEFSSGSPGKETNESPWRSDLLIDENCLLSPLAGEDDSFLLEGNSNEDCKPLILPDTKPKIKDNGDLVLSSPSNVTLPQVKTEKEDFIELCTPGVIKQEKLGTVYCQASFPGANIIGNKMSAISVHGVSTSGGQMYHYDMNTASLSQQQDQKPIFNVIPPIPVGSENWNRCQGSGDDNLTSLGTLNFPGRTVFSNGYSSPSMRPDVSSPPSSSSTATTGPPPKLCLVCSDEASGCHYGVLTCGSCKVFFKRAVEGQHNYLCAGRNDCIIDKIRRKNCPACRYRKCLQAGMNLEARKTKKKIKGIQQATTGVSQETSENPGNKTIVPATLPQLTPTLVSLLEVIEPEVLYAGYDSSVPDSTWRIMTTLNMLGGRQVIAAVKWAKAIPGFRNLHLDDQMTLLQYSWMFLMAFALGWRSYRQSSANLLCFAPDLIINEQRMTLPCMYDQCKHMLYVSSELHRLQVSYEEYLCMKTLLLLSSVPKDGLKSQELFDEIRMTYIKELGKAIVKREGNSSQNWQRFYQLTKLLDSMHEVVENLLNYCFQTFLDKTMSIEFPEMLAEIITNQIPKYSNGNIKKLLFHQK
Excerpt: (§1) HG5LN MR and HG5LN PXR luciferase reporter cell lines were obtained by stable expression of individual ligand binding domains fused to GAL4 DNA binding domain in HG5LN (HeLa GAL4REx5-luciferase) cells, as previously described. HELN PR cells were obtained by stably expressing PR with the ERα DNA binding domain in HELN (HeLa ERE-luciferase) cells and HMLN GR cells were obtained by stable co-transfection of HeLa cells with a plasmid encoding for a glucocorticoid responsive gene (MMTV-Luc-SV-Neo) and a glucocorticoid receptor expressing plasmid, as previously described.
(§2) Agonistic activities were evaluated in HMLN GR, HELN PR, HG5LN MR, and HG5LN PXR cells, using dexamethasone 100 nM, R5020 100 nM, aldosterone 100 nM, and SR12813 3 μM as a positive control, respectively. […] RU486 was used as a control antagonist for GR and PR, and spironolactone for MR.
(§3) HMLN glucocorticoid receptor (GR), HG5LN mineralocorticoid receptor (MR), HELN progesterone receptor (PR) and HG5LN PXR cells were used to evaluate the antagonistic effect of the tested compounds on (A) the glucocorticoid receptor (GR), (B) the mineralocorticoid receptor (MR), (C) the progesterone receptor (PR) and (D) the agonistic activity towards the pregnane X receptor (PXR). […]

[2] = molecular target: T2, pregnane X receptor (PXR) (Homo sapiens, UniProt O75469); conditions: 16 h
T2 sequence (O75469 146-433 limits assumed): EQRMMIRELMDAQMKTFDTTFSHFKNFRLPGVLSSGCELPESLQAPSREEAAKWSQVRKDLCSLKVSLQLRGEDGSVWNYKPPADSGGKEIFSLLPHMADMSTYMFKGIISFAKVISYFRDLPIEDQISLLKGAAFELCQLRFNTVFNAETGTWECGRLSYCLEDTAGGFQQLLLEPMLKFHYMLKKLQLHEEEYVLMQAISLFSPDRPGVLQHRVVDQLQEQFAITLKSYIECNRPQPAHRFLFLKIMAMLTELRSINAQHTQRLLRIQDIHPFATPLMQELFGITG
Excerpt: as §1, §2, §3

[3] = molecular target: T3, mineralocorticoid receptor (MR) (Homo sapiens, UniProt P08235); assay: Transactivation assay in HG5LN MR cells; assay type: cell-based; conditions: 16 h, 1 nM aldosterone, highest concentrations used (>1 µM)
T3 construct: expressed in transfected cells
T3 sequence (P08235 726-964 limits assumed): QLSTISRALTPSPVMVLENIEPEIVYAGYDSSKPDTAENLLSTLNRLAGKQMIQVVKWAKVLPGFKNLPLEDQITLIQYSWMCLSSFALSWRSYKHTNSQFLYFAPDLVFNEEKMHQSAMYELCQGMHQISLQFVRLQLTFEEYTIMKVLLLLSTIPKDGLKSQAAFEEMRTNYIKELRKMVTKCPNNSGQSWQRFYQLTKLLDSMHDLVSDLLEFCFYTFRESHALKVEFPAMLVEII
Excerpt: as §1, §2, §3

[4] = test system: U2OS-ARE-Luc control cells; assay: Luciferase activity in U2OS-ARE-Luc control cells; conditions: validation, up to 3 µM, 16 h
LNCaP spheroids = conditions: 7 days, up to the highest concentrations used
Procedure: (§4) prostate cancer cells. GAPDH was used as a loading control.
(§5) Spheroids were treated for 7 days with the indicated concentrations of each drug, stained with PI (1 mg/mL) for 30 min and […] was evaluated using the Celigo® imaging system. Results are expressed as mortality ratios as compared to untreated spheroids (set at 1). Each point represent s the m ean ± SEM of 3 […]
(§6) Mortality (ratio/control)
(§7) [Harmol Hydrochloride] (M)

VCaP spheroids = conditions: 7 days, up to the highest concentrations used
Procedure: as §4, §5, §6, §7

PC3 cells = assay: Spheroid growth (CellTiter-Glo), PC3; assay type: cell-based, human; conditions: 7 days, AR negative cells
[5] = test system: AR target genes TMPRSS2, FKBP5, PSA; assay: RT-qPCR of AR target genes in VCaP cells; conditions: 3 µM, 24 h, 1 nM R1881
Procedure: LNCaP and VCaP cells were seeded in 6-well plates (10^6 and 2 × 10^6 cells per well, respectively) and, 48 h later, complete medium was replaced by charcoal-stripped medium with 5% FBS. Cells were then treated for 24 h with the tested compounds, and RNA extraction was performed using the Quick RNA Miniprep kit (Zymo-Research, Irvine, CA, USA), according to the manufacturer’s protocol. Reverse transcription was performed with 0.5 µg total RNA using the SuperScript III reverse transcriptase kit (ThermoFisher, Waltham, MA, USA), according to the manufacturer’s protocol, in a final volume of 20 µL. The levels of genes transcripts were measured by real time PCR using a LightCycler 480 system (Roche Life Science, Penzberg, Germany) in the presence of SYBRGreen (SYBR® Premix Ex Taq^tm) and the following primers: FKBP5, sense 5′-[sequence]-3′; antisense 5′-[sequence]-3′; PSA, sense 5′-[sequence]-3′; antisense 5′-[sequence]-3′; TMPRSS2, sense 5′-[sequence]-3′, antisense 5′-[sequence]-3′; GR, sense 5′-[sequence]-3′, antisense 5′-[sequence]-3′; HPRT, sense 5′-[sequence]-3′; antisense 5′-[sequence]-3′; GAPDH, sense 5′-[sequence]-3′; antisense 5′-[sequence]-3′. Expression levels were evaluated with the ΔΔCt method and were normalized to GAPDH. Results are expressed as mRNA expression, relative to control (untreated cells), and are the mean ± SEM of 3 independent experiments.

## Cc1nccc2c1[nH]c1cc(O)ccc12 [harmol hydrochloride, Harmol hydrochloride monohydrate]
VCaP cells
  Growth of VCaP spheroids: A similar effect was observed
[1]
  Activity towards GR: did not show any significant activity
[2]
  Activity towards PXR (agonistic): did not show any significant activity
[3]
  Antagonistic activity towards MR: small antagonistic activity
[4]
  Effect on luciferase activity in control cells: no effect
LNCaP spheroids
  Cell death (propidium iodide positive cells) versus untreated spheroids: did not significantly affect the number of propidium iodide positive cells
VCaP spheroids
  Cell death (propidium iodide positive cells) versus untreated spheroids: did not significantly affect the number of propidium iodide positive cells
PC3 cells
  Growth of PC3 spheroids: no effect
[5]
  Expression of the AR non-target gene HPRT: unaffected
  R1881-mediated expression of AR target genes TMPRSS2, FKBP5, PSA: significant decrease
